The subject of assay [1] is Caco-2 cells. The assay is described as follows: MTT cytotoxicity assay in undifferentiated Caco-2 cells. Type of assay: cell-based, human. The protocol:
(§1) The human Caco-2 cell line (TC7 clone) was kindly provided by Dr. Edith Brot-Laroche (Université Pierre et Marie Curie-Paris 6, UMR S 872, Les Cordeliers, France). Human epithelial fibroblast cells (NHDF-Ad, Lonza®®, Porriño, Spain) were kindly provided by Dr. Gracia Mendoza (Aragon Health Research Institute, IIS Aragón, Spain). Caco-2 cells (passages 40–70) and fibroblasts (passages 10–30) were maintained in a humidified atmosphere of 5% CO2 at 37 °C and grown in medium following the method used by Quero et al.. The Caco-2 cells were sub-cultured in 25 cm^2 plastic flasks at a density of 1.2 × 10^4 cells/cm^2, while the fibroblasts were sub-cultured on 75 cm^2 plastic flasks at a density of 1 × 10^4 cells/cm^2. The culture medium was replaced every 2 days.
(§2) The gold complexes were diluted in dimethyl sulfoxide (DMSO) as a 10 mM stock solution, and then diluted in cell culture medium at the desired concentrations.
(§3) For the cytotoxicity screening assays, Caco-2 cells were seeded in 96-well plates at a density of 4 × 10^3 cells/well. The culture medium was replaced with medium containing the drug panel 24 h post-seeding, and the cells were incubated for 24, 48 and 72 h. […] In differentiated Caco-2 and fibroblasts, culture medium containing metal gold complexes was added 15 days post-seeding, and the cells were incubated for 72 h. The antiproliferative effect was measured using an MTT assay, as previously described by Mármol et al.. The absorbance at 540/620 nm was measured using a SPECTROstar Nano (BMG Labtech, Ortenberg, Germany). In order to determine the selectivity index (SI), the IC50 value of the differentiated Caco-2 cells was divided by IC50 value in undifferentiated Caco-2, obtaining the ratio of the normal/cancerous cells’ toxicity.

In assay [2] the test system is p53. The assay can be described thus: Determination of p53 protein by flow cytometry. Type of assay: cell-based, human. The conditions noted are these: Caco-2; complex 1 1.14 µM 48 h, complex 8 7.22 µM 72 h. The method, then:
Caco-2 cells were seeded in a 75 cm^2 flask at a density of 1 × 10^4 cells/cm^2; 24 h later, they were exposed to the drug panel for 48 or 72 h. Then, the cells were collected and processed as previously described. Finally, 50 µL of every sample was incubated with 5 µL anti-active caspase-3 (BD Pharmigen, San Diego, CA, USA, Clone C92-605) and 5 µL p53 antibody (Miltenyi, Auburn, CA, USA, Clone REA609). The fluorescence was measured by flow cytometry using a Beckman Coulter Gallios (Brea, CA, USA) equipped with a blue solid diode laser (488 nm) and a red solid diode laser (635 nm). For the caspase-3 determination, the excitation wavelength was set at 488 nm and the emission was set at 525 nm; for the p53 analysis, the excitation was set at 635 nm and the emission was set at 660 nm.

Assay [3] relates to Human epithelial fibroblast cells (NHDF-Ad). The assay is described as follows: MTT viability assay in human epithelial fibroblasts. Format: cell-based. The conditions noted are these: complexes at their IC50 (1 1.14 μM, 3 1.7 μM, 8 7.22 μM, 9 8.56 μM), 72 h. The method, then: as §1, §2, §3
Assay [4] concerns Caco-2 cells. The assay can be described thus: Propidium iodide DNA staining and cell cycle analysis. Format: cell-based, human. The conditions noted are these: complex 1 1.14 µM 48 h, complex 8 7.22 µM 72 h. The method, then: Once the cells were seeded in 25 cm^2 flasks at a density of 1 × 10^4 cells/cm^2, they were exposed, after 24 post-sendings, to the drug panel for 48 or 72 h. The cells were fixed according to the previously described methods before being stained with 50 μg/mL PI solution. The signal intensity was analysed with a Beckman Coulter Gallios (Brea, CA, USA) equipped with a blue solid diode laser (488 nm) and a red solid diode laser (635 nm), collecting fluorescence with a 620 nm-long pass filter.

Assay [5] concerns differentiated Caco-2 cells. The assay can be described thus: MTT cytotoxicity assay in differentiated Caco-2 cells (healthy cell model). Type of assay: cell-based, human. The conditions noted are these: for decrease of cell viability: complexes at their IC50 (1 1.14 μM, 3 1.7 μM, 8 7.22 μM, 9 8.56 μM), 72 h; for IC50: treatment for 72 h. The protocol: as §1, §2, §3
Assay [6] concerns the target T1, recombinant human carbonic anhydrase IX (Homo sapiens, UniProt Q16790).
T1 construct: purchased Sigma SRP6483
The assay can be described thus: Carbonic anhydrase IX esterase activity assay (4-NPA). Type of assay: biochemical. Particulars: 30 μM, 5 min incubation. The protocol: The in vitro effect of metal complexes on the enzyme carbonic anhydrase IX was analyzed by monitoring conversion of 4-nitrophenyl acetate (4-NPA) to 4-nitrophenol. The tests were carried out in 96-well plates. Gold complexes (4 µL) were incubated with 4 µL recombinant human carbonic anhydrase IX (Sigma SRP6483, St Louis, MO, USA) (50 µg/mL) at 25 °C for 5 min. PBS at pH 7.35 (Sigma D1408, St Louis, MO, USA) was added to reach a final volume of 90 µL. The reaction was started by adding 10 µL 4-NPA (0.5 mM in methanol), and the absorbance at 405 nm was monitored every 30 s for 1 h using a SPECTROstar Nano (BMG Labtech, Ortenberg, Germany) multiplate reader. The results were expressed as a percentage of CA-IX activity with respect to the control. The potency of the inhibtion referred to the incubation in the presence of indisulam (E7070, N-(3-chloro-7-indolyl)-1,4-benzenedisulfonamide) (Sigma SML1225, St Louis, MO, USA), which is a specific inhibitor of carbonic anhydrase isoforms IX and XII.

Setting [7] is: 24 h incubation, read-out: IC50 24 h.
Setting [8] is: 48 h incubation, read-out: IC50 48 h.
Where [9] appears, read: 72 h incubation, read-out: IC50 72 h.
The mark [10] stands for this setting: treatment for 72 h, read-out: IC50.

The term IC50 denotes the concentration that inhibits the measured activity by half.

Where two headings read alike, the source gives them in different places.

As to `O=S(=O)(NC(=S)[S][Au][PH](c1ccccc1)(c1ccccc1)c1ccccc1)c1ccccc1` [Complex 1, [Au(S2CNHSO2C6H5)(PPh3)]], the IC50 came out at 1.92 ± 0.13 µM in assay [1] (setting [7]); 1.38 ± 0.21 µM in assay [1] (setting [8]); 1.14 ± 0.25 µM in assay [1] (setting [9]); 1.14 ± 0.25 µM in assay [1] (setting [10]); 12.7 ± 0.47 µM in assay [5]. The “cells with active p53” value in assay [2] was “significant increase in cells with active p53”. Besides, the “decrease of cell viability” value in assay [3] and in assay [5] was “did not compromise the viability” throughout. Besides, in assay [4], the cell cycle distribution result was “significantly increased the number of cells arrested in the G1 phase”. The “reduction in the esterase activity of CA” value in assay [6] worked out at 48%.
As to “[Au(S2CNHSO2-p-Me-C6H4)(IMePropargyl)] [Complex 8]”, the IC50 in assay [1] (setting [7]) was over 50 µM; in assay [1] (setting [8]), 37.4 ± 7.48 µM; in assay [1] (setting [9]), 7.22 ± 0.38 µM; in assay [1] (setting [10]), 7.22 ± 0.38 µM; in assay [5], 46.6 ± 3.26 µM. Besides, the “cells with active p53” value in assay [2] is “significant increase in cells with active p53”. The “decrease of cell viability” value in assay [3] and in assay [5] was “did not compromise the viability” in each case. Moreover, the cell cycle distribution result in assay [4] is reported as “significantly increased the number of cells arrested in the G1 phase”. Further, the “reduction in the esterase activity of CA” value in assay [6] came out at 31%.

For the origin of these results see paper PMC9221018, “Sulfonamide-Derived Dithiocarbamate Gold(I) Complexes Induce the Apoptosis of Colon Cancer Cells by the Activation of Caspase 3 and Redox Imbalance” (Biomedicines, 2022).
